Values joined by “and” are separate entries in the source; they are usually repeats but may differ in a detail not shown here. Equal entries are not always repeated.
Legend:
[1] = Propylene homopolymerization in parallel pressure reactor with the indicated activator; settings: propylene polymerization; 30 nmol catalyst MCN-1, 1.1 equivalents activator, 100° C., 150 psi propylene
Procedure: Solutions of the metal complexes and activators were prepared in a drybox using toluene or methylcyclohexane. Concentrations were typically 0.2 mmol/L. Tri-n-octylaluminum (TNOAL, neat, AkzoNobel) was used as a scavenger as indicated. Concentration of the TNOAL solution in toluene ranged from 0.5 to 2.0 mmol/L.
Polymerizations were carried out in a parallel pressure reactor according to common laboratory techniques, as generally described in U.S. Pat. Nos. 6,306,658; 6,455,316; 6,489,168; WO 00/09255; consistent with the procedures described by Murphy, V. et al. (2003) “A Fully Integrated High-Throughput Screening Methodology for the Discovery of New Polyolefin Catalysts: Discovery of a New Class of High Temperature Single-Site Group (IV) Copolymerization Catalysts,” J. Am. Chem. Soc., v. 125, pp. 4306-4317, each of which is fully incorporated herein by reference. The experiments were conducted in an inert atmosphere (N2) drybox using autoclaves equipped with an external heater for temperature control, glass inserts (internal volume of reactor=23.5 mL for C2 and C2/C8; 22.5 mL for C3 runs), septum inlets, regulated supply of nitrogen, ethylene and propylene, and equipped with disposable PEEK mechanical stirrers (800 RPM). The autoclaves were prepared by purging with dry nitrogen at 110° C. or 115° C. for 5 hours and then at 25° C. for 5 hours. Although the specific quantities, temperatures, solvents, reactants, reactant ratios, pressures, and other variables are frequently changed from one polymerization run to the next, the following describes a typical polymerization performed in a parallel pressure reactor. […]
The catalyst and activator solutions for the comparative data were all prepared in toluene. […] The resultant polymer was analyzed by Rapid GPC (see below) to determine the molecular weight, by FT-IR (see below) to determine percent octene incorporation, and by DSC (see below) to determine melting point (Tm).
Equivalence is determined based on the mole equivalents relative to the moles of the transition metal in the catalyst complex. […]

[2] = Solubility study of the activators (saturated solution in aliphatic/alicyclic solvent); type: physicochemical; settings: 25° C., concentration of saturated solution; for Solubility limit in MeCy: MeCy (methylcyclohexane)
Procedure: The solubility was determined using a saturated solution of the activator prepared by slowly adding the solvent to a pre-weighed amount of the activator. The final volume was determined as the minimum amount of solvent required to convert the heterogenous mixture into a homogeneous solution. The concentration of the saturated solution is presented in millimoles of activator per liter of solution (mM). Alternatively, a mixture of the activator was prepared by adding the solvent to an excess amount of activator. The resulting slurry was separated from the undissolved solids by decanting the mixture into a tared vial. Solvent was then added dropwise until the mixture became a homogeneous solution. The mass of the final solution was measured and then the solvent was evaporated to dryness to obtain the mass of the activator. The concentration of the saturated solution is presented in millimoles of activator per liter of solution (mM).

Compound	activity [1]	Solubility limit in MeCy [2]	Solubility limit in i-hexane [2]
1-methylindolinium tetrakis(heptafluoronaphthalen-2-yl)borate [MIH-BF28]	64 kg/mmol/h and 39 kg/mmol/h and 46 kg/mmol/h		
C[NH+](C)c1ccccc1.Fc1c(F)c(F)c([B-](c2c(F)c(F)c(F)c(F)c2F)(c2c(F)c(F)c(F)c(F)c2F)c2c(F)c(F)c(F)c(F)c2F)c(F)c1F [DMAH-BF20, N,N-Dimethylanilinium tetrakis(pentafluorophenyl) borate, reference compound]		<100 µM	<100 µM
CCCCCCCCCCC1C[NH+](C)c2ccccc21.Fc1c(F)c(F)c2c(F)c([B-](c3c(F)c(F)c4c(F)c(F)c(F)c(F)c4c3F)(c3c(F)c(F)c4c(F)c(F)c(F)c(F)c4c3F)c3c(F)c(F)c4c(F)c(F)c(F)c(F)c4c3F)c(F)c(F)c2c1F [MDIH-BF28, 3-decyl-1-methylindolin-1-ium BF-28]		10100 µM	1000 µM
C[NH+]1CCc2ccccc21.Fc1c(F)c(F)c([B-](c2c(F)c(F)c(F)c(F)c2F)(c2c(F)c(F)c(F)c(F)c2F)c2c(F)c(F)c(F)c(F)c2F)c(F)c1F [MIH-BF20, 1-methylindolinium tetrakis(pentafluorophenyl) borate]	7 kg/mmol/h	5300 µM	<100 µM
N,N-dimethyl anilinium tetrakis(heptafluoronaphthalen-2-yl)borate [DMAH-BF28, reference compound]	126 kg/mmol/h and 182 kg/mmol/h and 196 kg/mmol/h and 164 kg/mmol/h		

From patent US20200339509A1, “Non-Coordinating Anion Type Indolinium Activators in Aliphatic and Alicyclic Hydrocarbon Solvents” (ExxonMobil Chemical Patents Inc., priority 2019, published 2020)
